Values of other authors, collected in patent publication US6709666B2, “Insecticidal mat and heat-transpiration insecticidal method using the same” (Dainihon Jochugiku Co., Ltd., priority 2000, dated 2004).

Settings: at 20° C.

In the case of `C#CC(OC(=O)C1C(C=C(C)C)C1(C)C)/C(C)=C/CC` (stereo not shown) [empenthrin], the vapor pressure is given as 87 mPa.
